Experimental data: patent publication US9669031B2, “MNK inhibitors and methods related thereto” (eFFECTOR Therapeutics, Inc., priority 2014, dated 2017)
Where two headings read alike, the source gives them in different places.

How the values were obtained:
[1] = Balb/c, mouse, in vivo, po, 10 mg/kg
in vivo = conditions: Balb/c, mouse, po, 10 mg/kg; for AUC(0-t): AUClast; for half-life: T½

AUClast ([1]; female)	Tlast ([1]; female)	T½ ([1]; female)	AUC(0-t) (in vivo; female)	Cmax (in vivo; female)	half-life (in vivo; female)	Tmax (in vivo; female)	Tlast ([1]; male)	AUC(0-t) (in vivo; male)	Cmax (in vivo; male)	Tmax (in vivo; male)	SMILES
22300 ng·h/mL	24 h	3.56 h	38100 ng·h/mL	3370 ng/mL	5.41 h						CC1(c2cccc(F)c2)NC(=O)c2c(Cl)cc(Nc3cc(NC(=O)C4CC4)ncn3)c(=O)n21 (stereo not shown) [Cpd. No. 52, N-[6-[[8-chloro-3-(3-fluorophenyl)-3-methyl-1,5-dioxo-2H-imidazo[1,5-a]pyridin-6-yl]amino]pyrimidin-4-yl]cyclopropanecarboxamide]
				630 ng/mL	2.5 h	0.3 h					Cl.O=C1NC2(CCCCC2)n2c1c(Cl)cc(Nc1ccncn1)c2=O [Cpd. No. 109, 8-chloro-6-(pyrimidin-4-ylamino)spiro[2H-imidazo[1,5-a]pyridine-3,1′-cyclohexane]-1,5-dione hydrochloride]
	8 h		42.9 ng·h/mL	9.16 ng/mL	7.55 h	2 h					O=C1NC2(CCCCC2)n2c1c(Cl)cc(Nc1cc(NC(=O)C3CC3)ncn1)c2=O [Cpd. No. 45, N-(6-((8′-chloro-1′,5′-dioxo-1′,5′-dihydro-2′H-spiro[cyclohexane-1,3′-imidazo[1,5-a]pyridin]-6′-yl)amino)pyrimidin-4-yl)cyclopropanecarboxamide]
	4 h		109 ng·h/mL	50.2 ng/mL	2.66 h	0.5 h					O=C1NC2(CCCC2)n2c1ccc(Nc1cc(NC(=O)C3CC3)ncn1)c2=O [Cpd. No. 21, N-[6-[(1,5-dioxospiro[2H-imidazo[1,5-a]pyridine-3,1′-cyclopentane]-6-yl)amino]pyrimidin-4-yl]cyclopropanecarboxamide]
							8 h	255 ng·h/mL	405 ng/mL	0.5 h	CC1(C(F)(F)F)NC(=O)c2ccc(Nc3ccncn3)c(=O)n21 (stereo not shown) [Cpd. No. 14, 3-methyl-6-(pyrimidin-4-ylamino)-3-(trifluoromethyl)-2,3-dihydroimidazo[1,5-a]pyridine-1,5-dione]
	24 h		56900 ng·h/mL	6170 ng/mL	2.61 h	1 h					CC1(CC(F)(F)F)NC(=O)c2c(Cl)cc(Nc3ccncn3)c(=O)n21 (stereo not shown) [Cpd. No. 55, 8-chloro-3-methyl-6-(pyrimidin-4-ylamino)-3-(2,2,2-trifluoroethyl)-2H-imidazo[1,5-a]pyridine-1,5-dione]
	24 h		5430 ng·h/mL	690 ng/mL	5.32 h	2 h					CC1(c2cccc(Cl)c2)NC(=O)c2c(Cl)cc(Nc3ccncn3)c(=O)n21 (stereo not shown) [Cpd. No. 58, 8-chloro-3-(3-chlorophenyl)-3-methyl-6-(pyrimidin-4-ylamino)-2H-imidazo[1,5-a]pyridine-1,5-dione]
				1700 ng/mL	2.6 h	0.3 h					Cl.O=C1NC2(CCC(F)(F)CC2)n2c1c(Cl)cc(Nc1ccncn1)c2=O [Cpd. No. 110, 8-chloro-4′,4′-difluoro-6-(pyrimidin-4-ylamino)spiro[2H-imidazo[1,5-a]pyridine-3,1′-cyclohexane]-1,5-dione hydrochloride]

SMILES	AUClast ([1]; female)	Tlast ([1]; female)	T½ ([1]; female)	AUC(0-t) (in vivo; female)	Cmax (in vivo; female)	half-life (in vivo; female)	Tmax (in vivo; female)	Tlast ([1]; male)	AUC(0-t) (in vivo; male)	Cmax (in vivo; male)	Tmax (in vivo; male)
O=C1NC2(CCCNC2)n2c1ccc(Nc1ccncn1)c2=O (stereo not shown) [Cpd. No. 20, 6-(pyrimidin-4-ylamino)-1H-spiro[imidazo[1,5-a]pyridine-3,3′-piperidine]-1,5(2H)-dione]		4 h		2090 ng·h/mL	2240 ng/mL	0.643 h	0.5 h				
Cl.O=C1NC2(CCCNC2)n2c1c(Cl)cc(Nc1ccncn1)c2=O (stereo not shown) [Cpd. No. 54, 8-chloro-6-(pyrimidin-4-ylamino)spiro[2H-imidazo[1,5-a]pyridine-3,3′-piperidine]-1,5-dione hydrochloride]					1050 ng/mL		0.5 h				
